Here are results for four molecules from article PMC10914316 (Biochemistry, 2023).

Like-named read-outs stand apart in the source and are kept apart here.

Experiment [1] concerns the target T1, ArnA_DH (Escherichia coli, UniProt P77398). As to conditions: for Tm (melting temperature of ArnA_DH with ligand): no ligand Tm = 318.4 ± 0.03 K.
The target of experiment [2] is T2, ArnA_DH_N492A (Escherichia coli, UniProt P77398, N492A).
T2 sequence (P77398 314-660 N492A): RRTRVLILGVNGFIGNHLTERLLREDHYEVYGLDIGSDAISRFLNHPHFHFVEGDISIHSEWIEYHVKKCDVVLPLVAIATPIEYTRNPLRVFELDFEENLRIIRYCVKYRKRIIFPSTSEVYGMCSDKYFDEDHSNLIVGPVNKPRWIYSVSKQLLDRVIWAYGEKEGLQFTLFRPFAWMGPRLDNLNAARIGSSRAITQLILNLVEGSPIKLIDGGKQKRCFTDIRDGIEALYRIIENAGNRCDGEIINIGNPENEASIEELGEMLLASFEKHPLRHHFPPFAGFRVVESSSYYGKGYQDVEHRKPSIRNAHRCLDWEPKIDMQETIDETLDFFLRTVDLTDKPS
Kind of experiment: Thermal stability shift assay for ligand binding to N492A mutant.

Experiment [3] concerns the target T2, ArnA_DH_N492A. Kind of experiment: NADH binding. It is filed as biochemical. As to conditions: concentrations as high as 10 mM.
Experiment [4] has as its target T1, ArnA_DH. The experiment is described as follows: biochemical.

Turning to `O=C(O)[C@H]1O[C@H](OP(=O)(O)O)[C@H](O)[C@@H](O)[C@@H]1O` [GlcA-1P, glucuronic acid-1-phosphate], in experiment [1] (1 mM and 10 mM ligand), the “ligand binding by thermal stability shift assay” value is “undetectable”. Further, the figures for the “Tm (melting temperature of ArnA_DH with ligand)” value (“Tm” for short) in experiment [1] (1 mM ligand) and in experiment [1] (10 mM ligand) were 318.9 ± 0.02 K and 318.4 ± 0.03 K, respectively.

For the molecule `O=C(O)[C@H]1O[C@H](OP(=O)(O)OP(=O)(O)OC[C@H]2O[C@@H](n3ccc(=O)[nH]c3=O)[C@H](O)[C@@H]2O)[C@H](O)[C@@H](O)[C@@H]1O` [UDP-GlcA, UDP-glucuronic acid], the dissociation constant (Kd) (in general, a measure of binding affinity in units of concentration) in experiment [2] is 36 ± 7 µM; in experiment [4], 22 ± 5 µM. Also, in experiment [3], the “UDP-GlcA-induced conformational change of ArnA_DH_N492A (intrinsic NADH fluorescence)” value is given as “little change in the intrinsic NADH fluorescence”.

`O=c1ccn([C@@H]2O[C@H](COP(=O)(O)OP(=O)(O)O[C@H]3OC[C@@H](O)[C@H](O)[C@H]3O)[C@@H](O)[C@H]2O)c(=O)[nH]1` [UDP-xylose]: the “Tm” value in experiment [1] (1 mM ligand) was 320.0 ± 0.03 K. This molecule also returned a Kd in experiment [4] of 633 ± 116 µM.

For `O=c1ccn([C@@H]2O[C@H](COP(=O)(O)O)[C@@H](O)[C@H]2O)c(=O)[nH]1` [UMP, uridine monophosphate], in experiment [1] (1 mM ligand), the “Tm” value came out at 320.6 ± 0.02 K. Besides, in experiment [4], the affinity, expressed as Kd, was 594 ± 135 µM.
